From PubChem BioAssay AID256 (DTP/NCI, 2004) come the findings set out here.

The assay has as its system CD2F1 mice, L1210 leukemia ip, survival T/C. Briefly: NCI In Vivo Anticancer Drug Screen. Data for tumor model L1210 Leukemia (intraperitoneal) in CD2F1 (CDF1) mice. The note with it: higher = longer survival. A digest of the protocol: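 Tumor-bearing mice (transplanted tumor) were split into treated and vehicle control groups, and the measured endpoint of each treated group was divided by that of its vehicle controls.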

The mark [1] stands for this setting: endpoint: mean survival time, dose: 100.0 mg/kg/injection, schedule: Q01DX001 (ip), vehicle: saline.
Where [2] appears, read: endpoint: mean survival time, dose: 100.0 mg/kg/injection, schedule: Q04DX003 (ip), vehicle: saline.
Setting [3] is: endpoint: mean survival time, dose: 200.0 mg/kg/injection, schedule: Q01DX001 (ip), vehicle: saline.
Where [4] appears, read: endpoint: mean survival time, dose: 200.0 mg/kg/injection, schedule: Q04DX003 (ip), vehicle: saline.
[5] abbreviates: endpoint: mean survival time, dose: 400.0 mg/kg/injection, schedule: Q01DX001 (ip), vehicle: saline.
[6] abbreviates: endpoint: mean survival time, dose: 400.0 mg/kg/injection, schedule: Q04DX003 (ip), vehicle: saline.
[7] abbreviates: endpoint: mean survival time, dose: 100.0 mg/kg/injection, schedule: Q04DX002 (ip), vehicle: saline with Tween-80.
The mark [8] stands for this setting: endpoint: mean survival time, dose: 200.0 mg/kg/injection, schedule: Q04DX002 (ip), vehicle: saline with Tween-80.
[9] abbreviates: endpoint: mean survival time, dose: 100.0 mg/kg/injection, schedule: Q04DX003 (ip), vehicle: saline with Tween-80.
Setting [10] is: endpoint: mean survival time, dose: 200.0 mg/kg/injection, schedule: Q04DX003 (ip), vehicle: saline with Tween-80.
The mark [11] stands for this setting: endpoint: mean survival time, dose: 12.5 mg/kg/injection, schedule: Q04DX002 (ip), vehicle: saline with Tween-80.
Where [12] appears, read: endpoint: mean survival time, dose: 25.0 mg/kg/injection, schedule: Q04DX002 (ip), vehicle: saline with Tween-80.
Where [13] appears, read: endpoint: mean survival time, dose: 50.0 mg/kg/injection, schedule: Q04DX002 (ip), vehicle: saline with Tween-80.
Setting [14] is: endpoint: mean survival time, dose: 100.0 mg/kg/injection, schedule: Q01DX001 (ip), vehicle: saline with Tween-80.
[15] abbreviates: endpoint: mean survival time, dose: 200.0 mg/kg/injection, schedule: Q01DX001 (ip), vehicle: saline with Tween-80.
Where [16] appears, read: endpoint: mean survival time, dose: 400.0 mg/kg/injection, schedule: Q01DX001 (ip), vehicle: saline with Tween-80.

The structures appear in SMILES notation. Inconclusive results and toxic doses are left out.

`c1cc[n+](C[n+]2ccccc2)cc1`: the T/C under setting [1] was 101 % of control; the T/C under setting [2] is 96 % of control; the T/C under setting [3] was 101 % of control; the T/C under setting [4] is 97 % of control; the T/C under setting [5] is 101 % of control; the T/C under setting [6] was 100 % of control.

Take `c1ccc(CCNCc2ccccn2)nc1`: the T/C reads like this: (endpoint: mean survival time, dose: 25.0 mg/kg/injection, schedule: Q04DX002 (ip), vehicle: saline) 96 % of control; (endpoint: mean survival time, dose: 50.0 mg/kg/injection, schedule: Q04DX002 (ip), vehicle: saline) 101 % of control; under setting [1], 94 % of control; (endpoint: mean survival time, dose: 100.0 mg/kg/injection, schedule: Q04DX002 (ip), vehicle: saline) 96 % of control.

Turning to `O=C(O)c1ccccc1C(=O)c1ccccc1`, the T/C by setting is: (endpoint: mean survival time, dose: 100.0 mg/kg/injection, schedule: Q01DX009 (ip), vehicle: saline) 97 % of control; under setting [2], 90 % of control; (endpoint: mean survival time, dose: 200.0 mg/kg/injection, schedule: Q01DX009 (ip), vehicle: saline) 101 % of control; under setting [4], 95 % of control; (endpoint: mean survival time, dose: 400.0 mg/kg/injection, schedule: Q01DX009 (ip), vehicle: saline) 101 % of control; under setting [6], 103 % of control.

With `CN(Cc1ccccc1)C(c1ccccc1)C(O)C(O)(c1ccccc1)c1ccccc1` (centres undefined), the T/C is 97 % of control (endpoint: mean survival time, dose: 100.0 mg/kg/injection, schedule: Q04DX003 (ip), vehicle: acetone); 97 % of control (endpoint: mean survival time, dose: 200.0 mg/kg/injection, schedule: Q04DX003 (ip), vehicle: acetone); 90 % of control (endpoint: mean survival time, dose: 400.0 mg/kg/injection, schedule: Q04DX003 (ip), vehicle: acetone).

As to `CCN(CC)C(=S)SCCSC(=S)N(CC)CC`, the T/C under setting [7] was 92 % of control; the T/C under setting [8] is 106 % of control; the T/C (endpoint: mean survival time, dose: 400.0 mg/kg/injection, schedule: Q04DX002 (ip), vehicle: saline with Tween-80) is 89 % of control.

On to `Cc1ccnc(N)c1N`, for which the T/C (endpoint: mean survival time, dose: 12.5 mg/kg/injection, schedule: Q01DX009 (ip), vehicle: other) is 91 % of control and the T/C (endpoint: mean survival time, dose: 25.0 mg/kg/injection, schedule: Q01DX009 (ip), vehicle: other) was 94 % of control.

With `CCCN(CCC)CC(=O)c1ccc2cc(Br)c3ccccc3c2c1`, the T/C by setting is: under setting [2], 92 % of control; under setting [4], 91 % of control; under setting [6], 89 % of control.

Regarding `CC1(C)CC(=O)C2(C)CCC3(CC2C1)OCCO3` (centres undefined), the T/C under setting [9] was 96 % of control; the T/C under setting [10] is 96 % of control; the T/C (endpoint: mean survival time, dose: 400.0 mg/kg/injection, schedule: Q04DX003 (ip), vehicle: saline with Tween-80) is 96 % of control.

In the case of `Cc1ccoc1`, the T/C (endpoint: median survival time, dose: 8.3 mg/kg/injection, schedule: Q03HX015 (ip), vehicle: saline with Tween-80) was 101 % of control; the T/C (endpoint: median survival time, dose: 16.6 mg/kg/injection, schedule: Q03HX015 (ip), vehicle: saline with Tween-80) was 103 % of control; the T/C (endpoint: median survival time, dose: 33.3 mg/kg/injection, schedule: Q03HX015 (ip), vehicle: saline with Tween-80) is 117 % of control; the T/C (endpoint: median survival time, dose: 66.6 mg/kg/injection, schedule: Q03HX015 (ip), vehicle: saline with Tween-80) was 124 % of control.

In the case of `CCc1c(Cl)c(C)c(Cl)c(O)c1Cl`, the T/C reads like this: under setting [9], 96 % of control; under setting [10], 88 % of control.

For `O=[N+]([O-])c1ccc2c(c1)Cc1cc(N(CBr)CBr)ccc1-2`, the T/C by setting is: under setting [2], 109 % of control; under setting [4], 107 % of control; under setting [6], 121 % of control.

For `COc1ccc(C2(O)C3CCC2CC3)cc1` (centres undefined), the T/C is, setting by setting: under setting [11], 96 % of control; under setting [12], 101 % of control; under setting [13], 108 % of control.

Consider `O=C(O)CCN(Cl)Cl`, for which the T/C reads like this: (endpoint: mean survival time, dose: 1.56 mg/kg/injection, schedule: Q01DX009 (ip), vehicle: saline) 97 % of control; (endpoint: mean survival time, dose: 3.13 mg/kg/injection, schedule: Q01DX009 (ip), vehicle: saline) 102 % of control; (endpoint: mean survival time, dose: 6.25 mg/kg/injection, schedule: Q01DX009 (ip), vehicle: saline) 100 % of control.

Take `Cc1ccc(S(=O)(=O)Nc2ccc(Cl)c(Cl)c2)cc1`: the T/C was 104 % of control under setting [14]; 105 % of control (endpoint: mean survival time, dose: 100.0 mg/kg/injection, schedule: Q01DX009 (ip), vehicle: Klucel (hydroxypropylcellulose) (HPC)); 101 % of control under setting [15]; 95 % of control (endpoint: mean survival time, dose: 200.0 mg/kg/injection, schedule: Q01DX009 (ip), vehicle: Klucel (hydroxypropylcellulose) (HPC)); 103 % of control under setting [16].

For the compound `NC(=O)C1CC1c1ccccc1` (centres undefined), the T/C under setting [14] was 100 % of control, the T/C under setting [15] is 102 % of control and the T/C under setting [16] is 96 % of control.

With `Nc1nc(N)c2nc(CN(CCO)c3ccc(C(=O)NC(CCC(=O)O)C(=O)O)cc3)cnc2n1` (centres undefined), the T/C (endpoint: mean survival time, dose: 2.0 mg/kg/injection, schedule: Q01DX009 (ip), vehicle: Klucel (hydroxypropylcellulose) (HPC)) was 162 % of control; the T/C (endpoint: mean survival time, dose: 4.0 mg/kg/injection, schedule: Q01DX009 (ip), vehicle: Klucel (hydroxypropylcellulose) (HPC)) was 190 % of control; the T/C (endpoint: mean survival time, dose: 8.0 mg/kg/injection, schedule: Q01DX009 (ip), vehicle: Klucel (hydroxypropylcellulose) (HPC)) is 171 % of control.

Turning to `Cc1ccccc1NC(=O)CN(C)C`, the T/C (endpoint: mean survival time, dose: 100.0 mg/kg/injection, schedule: Q01DX001 (ip), vehicle: other) is 98 % of control and the T/C (endpoint: mean survival time, dose: 200.0 mg/kg/injection, schedule: Q01DX001 (ip), vehicle: other) is 103 % of control.

For `COc1ccc([C@@]23Oc4cc(OC)cc(OC)c4[C@]2(O)[C@H](O)[C@H](C(=O)N(C)C)[C@H]3c2ccccc2)cc1`, the T/C is, setting by setting: (endpoint: median survival time, dose: 0.25 mg/kg/injection, schedule: Q01DX009 (ip), vehicle: Klucel (hydroxypropylcellulose) (HPC)) 101 % of control; (endpoint: median survival time, dose: 0.5 mg/kg/injection, schedule: Q01DX009 (ip), vehicle: Klucel (hydroxypropylcellulose) (HPC)) 97 % of control; (endpoint: median survival time, dose: 1.0 mg/kg/injection, schedule: Q01DX009 (ip), vehicle: Klucel (hydroxypropylcellulose) (HPC)) 102 % of control; (endpoint: median survival time, dose: 2.0 mg/kg/injection, schedule: Q01DX009 (ip), vehicle: Klucel (hydroxypropylcellulose) (HPC)) 113 % of control; (endpoint: median survival time, dose: 4.0 mg/kg/injection, schedule: Q01DX009 (ip), vehicle: Klucel (hydroxypropylcellulose) (HPC)) 108 % of control.

On to `CCCS(=O)(=O)Nc1ccc(Nc2c3ccccc3nc3ccccc23)c(OC)c1`, for which, under “endpoint: mean survival time, dose: 3.75 mg/kg/injection, schedule: Q01DX009 (ip), vehicle: saline”, the T/C is 122 % of control.

Turning to `CCN(CC)C(=S)SCn1ncc2ccc([N+](=O)[O-])cc21`, the T/C is 95 % of control under setting [1], 92 % of control under setting [3] and 89 % of control under setting [5].

With `Cc1c(Cl)c(Cl)c(Cl)c(I)c1Cl`, the T/C is 96 % of control under setting [13]; 97 % of control under setting [14]; 93 % of control under setting [7]; 102 % of control under setting [15]; 93 % of control under setting [8]; 97 % of control under setting [16].

`O=C([O-])CC(=O)[O-].[NH-][C@@H]1CCCC[C@H]1[NH-].[Pt+4]`: the T/C (endpoint: mean survival time, dose: 6.25 mg/kg/injection, schedule: Q04DX003 (ip), vehicle: saline with Tween-80) was 113 % of control.

Turning to `COCNC(=S)N/N=C/c1ccccn1`, the T/C (endpoint: mean survival time, dose: 6.25 mg/kg/injection, schedule: Q01DX009 (ip), vehicle: saline with Tween-80) is 97 % of control; the T/C (endpoint: mean survival time, dose: 12.5 mg/kg/injection, schedule: Q01DX009 (ip), vehicle: saline with Tween-80) was 100 % of control; the T/C under setting [11] is 94 % of control; the T/C (endpoint: mean survival time, dose: 25.0 mg/kg/injection, schedule: Q01DX009 (ip), vehicle: saline with Tween-80) is 97 % of control; the T/C under setting [12] is 97 % of control; the T/C (endpoint: mean survival time, dose: 50.0 mg/kg/injection, schedule: Q01DX009 (ip), vehicle: saline with Tween-80) was 122 % of control. Under setting [13], the T/C is 97 % of control.

Turning to `S=c1[nH]c2cc(Cl)c(Cl)cc2[nH]1`, the T/C was 100 % of control under setting [1], 100 % of control under setting [3] and 102 % of control under setting [5].
